32 molecules from ChEMBL document CHEMBL5385895, “Design, synthesis, biological evaluation of urea substituted 1,2,5-oxadiazole-3-carboximidamides as novel indoleamine 2,3-dioxygenase-1 (IDO1) inhibitors” (Eur J Med Chem, 2023) can be followed below.

Calls of active or inactive are those of the source. The calls are words filed in the database; no cut-off is given here.

For assay [1], the target named is Tryptophan 2,3-dioxygenase (Homo sapiens) (UniProt P48775). In words: Inhibition of human recombinant TDO assessed as reduction in N-formylkynurenine formation using L-tryptophan as substrate at 1 uM preincubated for 30 mins followed by substrate addition and measured after 20 mins by SpectraMax microplate reader analysis. The note with it: time 50.0 min.
Sequence of Tryptophan 2,3-dioxygenase (Homo sapiens) (P48775 whole entry, looked up): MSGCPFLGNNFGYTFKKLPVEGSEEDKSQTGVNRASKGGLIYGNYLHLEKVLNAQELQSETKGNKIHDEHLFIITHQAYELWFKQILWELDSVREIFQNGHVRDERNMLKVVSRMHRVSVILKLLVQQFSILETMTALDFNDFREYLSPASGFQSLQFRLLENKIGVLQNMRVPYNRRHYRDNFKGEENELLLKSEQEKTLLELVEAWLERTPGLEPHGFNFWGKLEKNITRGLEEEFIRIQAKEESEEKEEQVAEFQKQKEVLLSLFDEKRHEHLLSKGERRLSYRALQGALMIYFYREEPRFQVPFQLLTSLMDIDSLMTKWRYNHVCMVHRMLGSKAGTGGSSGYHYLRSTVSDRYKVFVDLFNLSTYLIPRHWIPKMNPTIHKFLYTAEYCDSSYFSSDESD
Assay [2] has as its target T1, Indoleamine 2,3-dioxygenase 1 (Homo sapiens, UniProt P14902). The assay is described as follows: Inhibition of human recombinant IDO1 assessed as reduction in N-formylkynurenine formation using L-tryptophan as substrate preincubated for 30 mins followed by substrate addition and measured after 20 mins by SpectraMax microplate reader analysis.
Assay [3] concerns the target T2, Indoleamine 2,3-dioxygenase 2 (Homo sapiens) (UniProt Q6ZQW0).
T2 sequence (whole entry): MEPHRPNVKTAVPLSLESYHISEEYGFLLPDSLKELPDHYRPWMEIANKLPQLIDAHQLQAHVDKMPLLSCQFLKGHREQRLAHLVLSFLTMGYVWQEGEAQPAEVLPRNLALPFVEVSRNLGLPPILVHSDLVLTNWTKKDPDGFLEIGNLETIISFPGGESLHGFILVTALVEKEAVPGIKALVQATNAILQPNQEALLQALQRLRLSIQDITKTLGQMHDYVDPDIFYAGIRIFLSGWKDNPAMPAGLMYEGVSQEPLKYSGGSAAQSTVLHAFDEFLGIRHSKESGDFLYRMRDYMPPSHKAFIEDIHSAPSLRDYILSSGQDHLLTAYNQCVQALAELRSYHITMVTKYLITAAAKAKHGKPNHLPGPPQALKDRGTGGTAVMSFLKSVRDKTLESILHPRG
The assay is described as follows: Inhibition of human recombinant IDO2 assessed as reduction in N-formylkynurenine formation using L-tryptophan as substrate at 1 uM preincubated for 30 mins followed by substrate addition and measured after 20 mins by SpectraMax microplate reader analysis. The note with it: time 50.0 min.

The target of assay [4] is T1, Indoleamine 2,3-dioxygenase 1. The assay is described as follows: Inhibition of IDO1 in IFN-gamma-induced human HeLa cells assessed as reduction in N-formylkynurenine formation using L-tryptophan as substrate preincubated for 24 hrs followed by substrate addition and measured after 30 mins by SpectraMax microplate reader analysis. Type of assay: cell-based.
The nature of the next assay: cells. The note with it: Mus musculus, Lung cancer cell line, 24 h.
A further assay has as its system HCT-116. In words: cells. To be noted: Homo sapiens, HCT-116, 24 h.
In another assay the test system is HeLa. In words: cells. To be noted: Homo sapiens, 24 h.
A further assay relates to CT26. In words: cells. To be noted: Mus musculus, CT26, 24 h.

T1 sequence (P14902 whole entry): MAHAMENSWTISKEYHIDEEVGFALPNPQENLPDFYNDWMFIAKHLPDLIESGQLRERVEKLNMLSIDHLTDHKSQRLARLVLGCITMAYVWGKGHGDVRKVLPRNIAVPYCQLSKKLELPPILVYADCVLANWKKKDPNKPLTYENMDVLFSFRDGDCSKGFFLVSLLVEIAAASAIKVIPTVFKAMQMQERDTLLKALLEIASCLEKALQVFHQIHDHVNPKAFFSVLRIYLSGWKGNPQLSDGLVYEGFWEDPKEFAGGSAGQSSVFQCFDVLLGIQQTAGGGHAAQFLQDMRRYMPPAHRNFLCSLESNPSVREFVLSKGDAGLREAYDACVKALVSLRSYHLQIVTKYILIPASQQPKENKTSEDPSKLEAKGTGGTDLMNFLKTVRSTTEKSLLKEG

What is called IC50 is the concentration at which inhibition is half-maximal. As to `COc1ccc(NC(=O)Nc2nonc2/C(=N/O)Nc2ccc(F)c(Br)c2)cc1OC`, the inhibition result in assay [1] and in assay [3] was “inactive” each time. Also, in assay [2], the IC50 turned out to be 331 nM.
As to `O=C(Nc1ccc(Br)cc1)Nc1nonc1/C(=N/O)Nc1ccc(F)c(Br)c1`, the inhibition result in assay [1] and in assay [3] was “inactive” in each case. Moreover, the IC50 in assay [2] was found to be 224 nM; in assay [4], 68.7 nM.
Consider `O=C(Nc1nonc1/C(=N/O)Nc1ccc(F)c(Br)c1)NC1CCCCC1`, for which the inhibition result in assay [1] and in assay [3] was “inactive” each time. The IC50 in assay [2] was 544 nM.
For `O=C(Nc1ccc(F)cc1)Nc1nonc1/C(=N/O)Nc1ccc(F)c(Br)c1`, the inhibition entry in assay [1] and in assay [3] was “inactive” throughout. Moreover, the IC50 in assay [2] amounted to 208 nM; in assay [4] it was 51.7 nM.
On to `COCCCNC(=O)Nc1nonc1/C(=N/O)Nc1ccc(F)c(Br)c1`, for which the inhibition entry in assay [1] and in assay [3] was “inactive” in each case. Moreover, the IC50 in assay [2] was greater than 1000 nM.
As for `O=C(Nc1nonc1/C(=N/O)Nc1ccc(F)c(Br)c1)NC1CCC1`, the inhibition result in assay [1] and in assay [3] was “inactive” in each case. The results for the IC50 in assay [2] and in assay [4] were 166 nM and 31.7 nM, respectively.
Regarding `O=C(Nc1ccc(Cl)cc1)Nc1nonc1/C(=N/O)Nc1ccc(F)c(Br)c1`, the inhibition entry in assay [1] and in assay [3] was “inactive” throughout. Further, the IC50 in assay [2] is 311 nM.
For `O=C(Nc1nonc1/C(=N/O)Nc1ccc(F)c(Br)c1)N1CCCC1`, the inhibition result in assay [1] and in assay [3] was “inactive” throughout. In addition, in assay [2], the IC50 was greater than 1000 nM.
Turning to `O=C(Nc1nonc1/C(=N/O)Nc1ccc(F)c(Br)c1)N1CCCCC1`, the inhibition result in assay [1] and in assay [3] was “inactive” in each case. The IC50 in assay [2] is greater than 1000 nM.
Turning to `CCCNC(=O)Nc1nonc1/C(=N/O)Nc1ccc(F)c(Br)c1`, the inhibition result in assay [1] and in assay [3] was “inactive” in each case. Also, the IC50 in assay [2] stood at 222 nM; in assay [4] it was 92.3 nM.
For `O=C(NCC1CC1)Nc1nonc1/C(=N/O)Nc1ccc(F)c(Br)c1`, the inhibition entry in assay [1] and in assay [3] was “inactive” each time. Moreover, the IC50 in assay [2] is 77 nM; in assay [4] it was 30.2 nM; in “cells”, greater than 50 µM; in the assay on HCT-116, 55.1 µM; with HeLa, 54.3 µM; with CT26, greater than 80 µM.
`CN(C)C(=O)Nc1nonc1/C(=N/O)Nc1ccc(F)c(Br)c1`: the inhibition entry in assay [1] and in assay [3] was “inactive” each time. The IC50 in assay [2] came out at 347 nM.
As to `CC(C)NC(=O)Nc1nonc1/C(=N/O)Nc1ccc(F)c(Br)c1`, the inhibition entry in assay [1] and in assay [3] was “inactive” each time. Moreover, the IC50 in assay [2] was 82.6 nM; in assay [4] it was 58.2 nM.
In the case of `O=C(Nc1nonc1/C(=N/O)Nc1ccc(F)c(Br)c1)NC1CC1`, the inhibition result in assay [1] and in assay [3] was “inactive” throughout. Further, the values for the IC50 in assay [2] and in assay [4] were 79.3 nM and 36.5 nM, respectively.
With `O=C(Nc1nonc1/C(=N/O)Nc1ccc(F)c(Br)c1)NC1CCCC1`, the inhibition entry in assay [1] and in assay [3] was “inactive” in each case. The IC50 in assay [2] was 314 nM.
On to `O=C(NCC1CCCCC1)Nc1nonc1/C(=N/O)Nc1ccc(F)c(Br)c1`, for which the inhibition result in assay [1] and in assay [3] was “inactive” in each case. Also, the IC50 in assay [2] is 847 nM.
Take `CN(C)CCNC(=O)Nc1nonc1/C(=N/O)Nc1ccc(F)c(Br)c1`: the inhibition result in assay [1] and in assay [3] was “inactive” throughout. Besides, the IC50 in assay [2] was greater than 1000 nM.
In the case of `O=C(Nc1nonc1/C(=N/O)Nc1ccc(F)c(Br)c1)N1CCC1`, the inhibition result in assay [1] and in assay [3] was “inactive” each time. The IC50 in assay [2] is 632 nM.
As for `COc1cccc(NC(=O)Nc2nonc2/C(=N/O)Nc2ccc(F)c(Br)c2)c1`, the inhibition entry in assay [1] and in assay [3] was “inactive” throughout. For the same molecule, the IC50 in assay [2] was 183 nM; in assay [4], 111 nM.
For the molecule `O=C(NCCO)Nc1nonc1/C(=N/O)Nc1ccc(F)c(Br)c1`, the inhibition entry in assay [1] and in assay [3] was “inactive” each time. The IC50 in assay [2] is greater than 1000 nM.
`O=C(NCC1CCC1)Nc1nonc1/C(=N/O)Nc1ccc(F)c(Br)c1`: the inhibition result in assay [1] and in assay [3] was “inactive” throughout. Moreover, the IC50 amounted to 109 nM in assay [2] and 41.1 nM in assay [4].
As for `O=C(Nc1ccccc1)Nc1nonc1/C(=N/O)Nc1ccc(F)c(Br)c1`, the inhibition result in assay [1] and in assay [3] was “inactive” each time. Further, the figures for the IC50 in assay [2] and in assay [4] were 197 nM and 49.5 nM, respectively.
Regarding `CCCCNC(=O)Nc1nonc1/C(=N/O)Nc1ccc(F)c(Br)c1`, the inhibition entry in assay [1] and in assay [3] was “inactive” each time. The figures for the IC50 in assay [2] and in assay [4] were 159 nM and 103 nM, respectively.
Take `NCCNC(=O)Nc1nonc1/C(=N/O)Nc1ccc(F)c(Br)c1`: the inhibition entry in assay [1] and in assay [3] was “inactive” throughout. Also, in assay [2], the IC50 was greater than 1000 nM.
For `CNC(=O)Nc1nonc1/C(=N/O)Nc1ccc(F)c(Br)c1`, the inhibition entry in assay [1] and in assay [3] was “inactive” in each case. The results for the IC50 in assay [2] and in assay [4] were 118 nM and 44.6 nM, respectively.
Take `COc1ccc(NC(=O)Nc2nonc2/C(=N/O)Nc2ccc(F)c(Br)c2)cc1`: the inhibition entry in assay [1] and in assay [3] was “inactive” in each case. In addition, the IC50 in assay [2] worked out at 148 nM; in assay [4], 43.7 nM.
As for `CC(C)CNC(=O)Nc1nonc1/C(=N/O)Nc1ccc(F)c(Br)c1`, the inhibition entry in assay [1] and in assay [3] was “inactive” each time. For the same molecule, the IC50 in assay [2] was 96.3 nM; in assay [4], 41.7 nM.
For the molecule `NCCCCNC(=O)Nc1nonc1/C(=N/O)Nc1ccc(F)c(Br)c1`, the inhibition entry in assay [1] and in assay [3] was “inactive” each time. Also, the IC50 in assay [2] was greater than 1000 nM.
Consider `NCCCNC(=O)Nc1nonc1/C(=N/O)Nc1ccc(F)c(Br)c1`, for which the inhibition result in assay [1] and in assay [3] was “inactive” throughout. Moreover, in assay [2], the half-inhibitory concentration (IC50) was greater than 1000 nM.
With `O=C(Nc1nonc1/C(=N/O)Nc1ccc(F)c(Br)c1)N1CCC(O)C1` (centres undefined), the inhibition result in assay [1] and in assay [3] was “inactive” each time. Also, the IC50 in assay [2] is greater than 1000 nM.
With `CN1CCN(C(=O)Nc2nonc2/C(=N/O)Nc2ccc(F)c(Br)c2)CC1`, the inhibition entry in assay [1] and in assay [3] was “inactive” in each case. Also, the IC50 in assay [2] amounted to 612 nM.
As to `COc1ccccc1NC(=O)Nc1nonc1/C(=N/O)Nc1ccc(F)c(Br)c1`, the inhibition entry in assay [1] and in assay [3] was “inactive” each time. The IC50 in assay [2] stood at 298 nM.
